Experimental data as given in the supplement of paper PMC10307832.

Key:
Assay in all cases: relative viability (nuclei count vs DMSO), 5 days (fraction); higher = more cells survive
YM155 + Pemetrexed = compound: COCC[n+]1c2c(n(Cc3cnccn3)c1C)C(=O)c1ccccc1C2=O [YM155] + Nc1nc2[nH]cc(CCc3ccc(C(=O)N[C@@H](CCC(=O)O)C(=O)O)cc3)c2c(=O)[nH]1 [Pemetrexed] (partner 0.2 µM)
Outline: (§1)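 Lung cancer cell lines were pin-tool dosed in 1536-well plates on the day after seeding, with either a lone drug or a fixed anchor-drug dose plus five library-drug doses (not always all listed) in √10 steps. Nuclei were counted on 4× images after 5 days. Relative viability is the ratio of treated-well to vehicle-well nuclei counts, with each value a median of duplicate plates.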

[1] = compound: CC(C)(C)c1cc(NC(=O)Nc2ccc(-c3cn4c(n3)sc3cc(OCCN5CCOCC5)ccc34)cc2)no1 [Quizartinib] + CC(=O)c1c(C)c2cnc(Nc3ccc(N4CCNCC4)cn3)nc2n(C2CCCC2)c1=O [Palbociclib] (partner 0.5 µM)
Outline: as §1

YM155 + Pictilisib = compound: COCC[n+]1c2c(n(Cc3cnccn3)c1C)C(=O)c1ccccc1C2=O [YM155] + CS(=O)(=O)N1CCN(Cc2cc3nc(-c4cccc5[nH]ncc45)nc(N4CCOCC4)c3s2)CC1 [Pictilisib] (partner 1 µM)
Outline: as §1

Quizartinib + Alpelisib = compound: CC(C)(C)c1cc(NC(=O)Nc2ccc(-c3cn4c(n3)sc3cc(OCCN5CCOCC5)ccc34)cc2)no1 [Quizartinib] + Cc1nc(NC(=O)N2CCC[C@H]2C(N)=O)sc1-c1ccnc(C(C)(C)C(F)(F)F)c1 [Alpelisib] (partner 2 µM)
Outline: as §1

| Cell Line | relative viability (YM155 + Pemetrexed; first compound 0.002 µM) | relative viability (YM155 + Pemetrexed; first compound 0.006325 µM) | relative viability (YM155 + Pemetrexed; first compound 0.02 µM) | relative viability (YM155 + Pemetrexed; first compound 0.06325 µM) | relative viability ([1]; first compound 0.001 µM) | relative viability ([1]; first compound 0.003162 µM) | relative viability ([1]; first compound 0.01 µM) | relative viability ([1]; first compound 0.03162 µM) | relative viability ([1]; first compound 0.1 µM) | relative viability (YM155 + Pictilisib; first compound 0.002 µM) | relative viability (YM155 + Pictilisib; first compound 0.006325 µM) | relative viability (YM155 + Pictilisib; first compound 0.02 µM) | relative viability (YM155 + Pictilisib; first compound 0.06325 µM) | relative viability (Quizartinib + Alpelisib; first compound 0.001 µM) | relative viability (Quizartinib + Alpelisib; first compound 0.003162 µM) | relative viability (Quizartinib + Alpelisib; first compound 0.01 µM) | relative viability (Quizartinib + Alpelisib; first compound 0.03162 µM) | relative viability (Quizartinib + Alpelisib; first compound 0.1 µM) |
| --- | --- | --- | --- | --- | --- | --- | --- | --- | --- | --- | --- | --- | --- | --- | --- | --- | --- | --- |
| NCI-H1975 | 0.26 | 0.258 | 0.302 | 0.167 | 0.588 | 0.605 | 0.599 | 0.552 | 0.538 | 0.273 | 0.268 | 0.256 | 0.224 | 0.638 | 0.521 | 0.655 | 0.545 | 0.585 |
| NCI-H1993 | 0.566 | 0.542 | 0.567 | 0.444 | 0.673 | 0.58 | 0.67 | 0.633 | 0.825 | 0.697 | 0.733 | 0.798 | 0.789 | 0.668 | 0.638 | 0.614 | 0.65 | 0.642 |
| NCI-H2009 | 0.93 | 1.07 | 0.85 | 0.528 | 0.202 | 0.237 | 0.273 | 0.191 | 0.226 | 0.8 | 0.796 | 0.852 | 0.57 | 1.14 | 1.01 | 1.19 | 1.09 | 1.13 |
| NCI-H2023 | 0.23 | 0.247 | 0.194 | 0.155 | 0.298 | 0.312 | 0.467 | – | 0.279 | 0.237 | 0.23 | 0.25 | 0.112 | 0.562 | 0.467 | 0.665 | 0.323 | 0.575 |
| NCI-H2085 | 0.705 | 0.884 | 0.911 | 0.869 | 0.407 | 0.486 | 0.444 | 0.453 | 0.388 | 0.435 | 0.38 | 0.534 | 0.429 | 0.88 | 0.881 | 0.997 | 0.822 | 0.827 |
| NCI-H2087 | 0.639 | 0.677 | 0.685 | 0.604 | 0.233 | 0.225 | 0.316 | 0.218 | 0.229 | 0.868 | 0.762 | 0.931 | 0.642 | 1.05 | 0.98 | 1.19 | 1.14 | 0.836 |
| NCI-H2126 | 0.696 | 0.691 | 0.67 | 0.753 | 0.359 | 0.347 | 0.347 | 0.339 | 0.346 | 0.427 | 0.525 | 0.466 | 0.54 | 0.76 | 0.726 | 0.757 | 0.774 | 0.753 |
| NCI-H2170 | 0.253 | 0.256 | 0.271 | 0.264 | 0.385 | 0.365 | 0.392 | 0.367 | 0.358 | 0.296 | 0.357 | 0.349 | 0.329 | 0.769 | 0.683 | 0.956 | 0.787 | 0.809 |
| NCI-H2228 | 0.329 | 0.318 | 0.332 | 0.326 | 0.695 | 0.936 | 0.773 | 1.03 | 0.76 | 0.338 | 0.278 | 0.384 | 0.388 | 0.771 | 0.58 | 0.79 | 0.721 | 0.678 |
| NCI-H2347 | 0.542 | 0.407 | 0.436 | 0.39 | 0.405 | 0.43 | 0.379 | 0.428 | 0.434 | 0.574 | 1.03 | 0.829 | 0.633 | 0.655 | 0.995 | 1.12 | 1.11 | 1.14 |
| NCI-H2405 | 0.886 | 0.961 | 0.914 | 0.452 | 0.499 | 0.519 | 0.584 | 0.528 | 0.556 | 0.407 | 0.316 | 0.395 | 0.312 | 0.579 | 0.748 | 0.847 | 0.733 | 0.978 |
| NCI-H3122 | 0.185 | 0.214 | 0.189 | 0.186 | 0.176 | 0.184 | 0.193 | 0.162 | 0.235 | 0.601 | 0.615 | 0.606 | 0.506 | 0.567 | 0.693 | 1.01 | 0.831 | 0.651 |
| PC-3 [JPC-3] | 0.978 | 1.22 | 1.07 | 0.967 | 0.531 | 0.545 | 0.598 | 0.588 | 0.504 | 0.651 | 0.792 | 0.801 | 0.759 | 0.953 | 1.01 | 1.14 | 1.02 | 0.998 |
| PC-14 | 0.126 | 0.136 | 0.148 | 0.141 | 0.485 | 0.457 | 0.488 | – | 0.477 | 0.648 | 0.717 | 0.693 | 0.536 | 0.854 | 0.903 | 1.03 | 0.877 | 0.89 |
| RERF-LC-KJ | 0.487 | 0.467 | 0.487 | 0.471 | 1.05 | 1.05 | 1.17 | 0.984 | 1.02 | 0.527 | 0.51 | 0.55 | 0.593 | 0.78 | 0.597 | 0.782 | 0.747 | 0.69 |
| SK-LU-1 | 0.946 | 0.956 | 0.91 | 0.684 | 0.366 | 0.361 | 0.443 | 0.381 | 0.388 | 0.606 | 0.496 | 0.483 | 0.545 | 0.96 | 0.876 | 1.17 | 0.982 | 0.81 |
| SK-MES-1 | 0.937 | 1.03 | 0.955 | 0.291 | 0.338 | 0.286 | 0.362 | 0.299 | 0.292 | 0.395 | 0.359 | 0.377 | 0.24 | 0.838 | 0.424 | 1.06 | 0.865 | 0.97 |
